Source: patent publication US20170008841A1, “CRYSTAL FORMS OF ASTAXANTHIN” (DSM IP ASSETS B.V., priority 2008, published 2017)
Values after ≈ are worked out from the molar mass of the structure shown. Like-named read-outs stand apart in the source and are kept apart here.

Tests used:
Type in all cases: physicochemical
[1] = Solvent-mediated transformation, slurry conversion experiments (XRPD of resulting crystals)
Experimental: Solvent-mediated polymorphic transformation is an efficient technique to study the phase stability of different crystal forms in various solvents. […] As transformation rates in different solvents vary from minutes to years, an appropriate solvent should be chosen to either facilitate or retard the transformation.
Currently, the choice of a solvent is still done by trial and error, which is time consuming. In accordance with the present invention, the stability test was carried out by the slurry conversion experiments in six different solvents. Form II (and in one case form I) is suspended as the initial form and the resulting crystals were analyzed by XRPD.

[2] = Stability of forms I and II in solid form / solid formulations (UV retention)
Experimental: Two solid formulations of the crystal forms I and II were prepared according to methods mentioned above. The formulations have been analyzed by Raman spectroscopy and—with regard to stability—by UV retention, a commonly used method for stability measurements.
The samples used in this experiment are: • Sample A: crystal form I prepared with methylene chloride • Sample B: crystal form II prepared with chloroform • For both formulations a matrix-composition consisting of a H2O-phase (Ca-Lignosulfonate & Yellow dextrin) and a Oil-phase (CH2Cl2) have been used. • Sample C: As a control commercial product Carophyll Pink 10%-CWS from DSM Nutritional Products Ltd was used. • In this case the following matrix-composition was used: H2O-phase: Ca-Lignosulfonate & Yellow dextrin; Oil-phase: CH2Cl2, & d,l-a-tocopherol, bees wax.)

[3] = Ideal solubility calculated of forms I and II in DCM from melting points and heat of fusion (DSC data)
Text: The ideal solubility can be estimated by using the equation with measured melting points and heat of fusion form DCS data.

[4] = Solubility measurements of astaxanthin form I and II in different solvents
Experimental: The solubilities of astaxanthin form I and II in different solvents were compared. Due to the very low solubility in some solvents (Isopropanol and corn oil), experiments in these two solvents were measured by using an UV-VIS meter. The saturated solutions were prepared at different temperature in a double jacked vessel and 1 ml of the solution was taken out and measured by the UV-VIS meter. To calculate the real concentration in these solvents, the calibration was made firstly by building up the correlation between absorbance unit and solution concentration.

## CC1=C(/C=C/C(C)=C/C=C/C(C)=C/C=C/C=C(C)/C=C/C=C(C)/C=C/C2=C(C)C(=O)[C@@H](O)CC2(C)C)C(C)(C)C[C@H](O)C1=O (relative stereo) [form I, all-trans-astaxanthin]
[1]; Chloroform, 1 day, 20 ° C.
  Final form after slurry conversion: form II
[2]
  stable in solid form: at least 5 months
[2]; 20° C.-40° C.
  stable in solid form: at least 90 days
[3]
  Conc. (ideal solubility calculated): 0.00 g/mL
[4]
  Solubility: 200.0 mg · 100 ml^−1
  solubility: 10 to 20 mg/mL (≈ 16.8 to 33.5 mM)

## CC1=C(/C=C/C(C)=C/C=C/C(C)=C/C=C/C=C(C)/C=C/C=C(C)/C=C/C2=C(C)C(=O)[C@@H](O)CC2(C)C)C(C)(C)C[C@H](O)C1=O (relative stereo) [form II, all-trans-astaxanthin]
[1]; DCM, 1 day, 20 ° C.
  Final form after slurry conversion: form I
[1]; EtOAc, 4 days, 40 ° C.
  Final form after slurry conversion: form I
[2]; 20° C.
  stable in solid form: at least 90 days
[3]; DCM, Cal. T 12.00 ° C.
  Conc. (ideal solubility calculated): 0.02 g/mL
  Ratio (Conc.) form II to form I (ideal solubility calculated): 3530.79
[3]; DCM, Cal. T 21.80 ° C.
  Conc. (ideal solubility calculated): 0.04 g/mL
  Ratio (Conc.) form II to form I (ideal solubility calculated): 1927.23
[3]; DCM, Cal. T 30.70 ° C.
  Conc. (ideal solubility calculated): 0.06 g/mL
  Ratio (Conc.) form II to form I (ideal solubility calculated): 1151.20
[3]; DCM, Cal. T 39.00 ° C.
  Conc. (ideal solubility calculated): 0.08 g/mL
  Ratio (Conc.) form II to form I (ideal solubility calculated): 731.67
[4]; Acetone, 20° C.
  Solubility: 9.0 mg · 100 ml^−1
[4]; DCM, 20° C.
  Solubility: 1082.0 mg · 100 ml^−1
[4]; DCM, Exp. T 12.00 ° C.
  Conc.: 0.02 g/mL
  Ln X: −6.19
  Ratio (Conc.) form II to form I: 1.68
[4]; DCM, Exp. T 21.80 ° C.
  Conc.: 0.02 g/mL
  Ln X: −5.96
  Ratio (Conc.) form II to form I: 1.83
[4]; DCM, Exp. T 30.70 ° C.
  Conc.: 0.04 g/mL
  Ln X: −5.52
  Ratio (Conc.) form II to form I: 1.54
[4]; EtOAc, 20° C.
  Solubility: 10.0 mg · 100 ml^−1
[4]; EtOH, 20° C.
  Solubility: 11.8 mg · 100 ml^−1
[4]; IPA, 20° C.
  Solubility: 6.0 mg · 100 ml^−1
[4]; Isopropanol, 30° C.
  solubility in Isopropanol: 3.4 mg·100 ml^−1
[4]; acetone, 20.5° C.
  solubility in acetone: approximately 8 mg·100 ml^−1
